PMC6263166 (The protein journal, 2011)
Where two headings read alike, the source gives them in different places.

Assays:
CYP1A2 [1] = target: T1, CYP1A2 (Homo sapiens, UniProt P05177); conditions: for concentrations at which hCYP1A2 was significantly inhibited: p < 0.05 compared to DMSO control, tested 0.005-1.5 μM
T1 sequence (P05177 1-516): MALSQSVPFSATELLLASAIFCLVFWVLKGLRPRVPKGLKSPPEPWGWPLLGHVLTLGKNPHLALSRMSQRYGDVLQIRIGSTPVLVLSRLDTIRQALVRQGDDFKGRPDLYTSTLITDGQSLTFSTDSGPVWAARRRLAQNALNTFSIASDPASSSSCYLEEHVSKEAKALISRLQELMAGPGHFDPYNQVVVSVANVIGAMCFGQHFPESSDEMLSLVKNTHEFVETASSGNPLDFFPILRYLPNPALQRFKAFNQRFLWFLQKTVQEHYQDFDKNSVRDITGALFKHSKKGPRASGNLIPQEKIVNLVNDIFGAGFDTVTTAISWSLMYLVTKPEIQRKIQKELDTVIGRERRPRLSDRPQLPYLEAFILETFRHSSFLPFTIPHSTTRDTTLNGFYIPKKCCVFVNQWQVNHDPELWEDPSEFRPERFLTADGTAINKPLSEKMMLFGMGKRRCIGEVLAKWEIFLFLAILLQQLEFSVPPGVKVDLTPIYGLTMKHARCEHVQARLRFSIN

CYP1A2 [2] = target: T1, CYP1A2; assay: biochemical
CYP1A2 [3] = conditions: cited from earlier work
CYP1A2 [4] = target: T1, CYP1A2; assay: Inhibition matrix assay; format: biochemical
CYP1A2 [5] = conditions: human liver microsomes, ethoxyresorufin as substrate; cited from earlier work
CYP1A2 [6] = target: T1, CYP1A2; assay: NADPH-dependent and GSH- and SOD-independent inactivation; format: biochemical; conditions: 8 μM isopimpinellin
CYP1A2 [7] = target: T1, CYP1A2; assay: Irreversibility of inactivation; format: biochemical
CYP1A2 [8] = target: T1, CYP1A2; assay: Partition ratio by titration of the enzyme with the inactivator; format: biochemical
CYP1A2 [9] = target: T1, CYP1A2; assay: Substrate protection; format: biochemical; conditions: 1.2 μM (KI) isopimpinellin
CYP1A2 [10] = target: T1, CYP1A2
CYP1A2 [11] = target: T1, CYP1A2; assay: in vitro
[12] = human liver microsomes, various substrates

## O=c1ccc2ccc3occc3c2o1 [angelicin]
CYP1A2 [1]; p < 0.05, tested 0.5-150 μM
  significance of hCYP1A2 inhibition: significant hCYP1A2 inhibition at all tested concentrations
CYP1A2 [2]
  IC50: 9600 nM

## CC(C)=CCOc1c2occc2cc2ccc(=O)oc12 [imperatorin]
CYP1A2 [4]
  Ki: 7 nM
CYP1A2 [4]; Dixon plots of the kinetics data
  mode of inhibition: mixed inhibition
CYP1A2 [1]
  concentrations at which hCYP1A2 was significantly inhibited: ≥ 5 nM
CYP1A2 [5]
  IC50: 380 ± 120 nM
CYP1A2 [2]
  IC50: 20 nM

## COc1c2ccoc2c(OC)c2oc(=O)ccc12 [isopimpinellin]
CYP1A2 [6]; GSH 250 μM
  effect of GSH on inactivation: GSH failed to protect the hCYP1A2 inactivation
CYP1A2 [6]; SOD 1000 units
  effect of SOD on inactivation: SOD did not prevent hCYP1A2 from inactivation, but rather enhanced the inactivation
CYP1A2 [6]; with and without 250 μM NADPH
  effect of NADPH on inactivation: the lack of NADPH results in the loss of the inhibitory effect
CYP1A2 [7]; 6.4 μM, one assay with six replicates (assay development)
  activity remaining pre- and post-dialysis: 24 ± 2%
CYP1A2 [7]; 8 μM, after 20 h of dialysis
  activity recovered after dialysis: approximately 21%
CYP1A2 [8]; 0.25-64 μM, preincubation 30 min, extrapolated from lower ratio data points
  partition ratio: 8
CYP1A2 [8]; five highest concentration ratios of isopimpinellin to hCYP1A2
  remaining CYP1A2 activity at high inactivator to enzyme ratios: no remaining CYP1A2 activity
CYP1A2 [9]; 0 μM methoxyresorufin in preincubation
  activity of hCYP1A2: 31.8%
CYP1A2 [9]; 0.4 μM methoxyresorufin in preincubation
  activity of hCYP1A2: 33.9%
CYP1A2 [9]; 2.0 μM methoxyresorufin in preincubation
  activity of hCYP1A2: 36.9%
CYP1A2 [9]; 10 μM methoxyresorufin in preincubation
  activity of hCYP1A2: 65.4%
CYP1A2 [1]
  concentrations at which hCYP1A2 was significantly inhibited: ≥ 50 nM
CYP1A2 [10]
  t1/2 (time required for half the enzyme molecules to be inactivated): 2.05 ± 0.22 min
CYP1A2 [5]
  IC50: 860 ± 180 nM
CYP1A2 [11]
  KI (inactivation): 1200 nM
  kinact: 0.00567 s⁻¹
  kinact/KI: 5000 M⁻¹ s⁻¹
CYP1A2 [2]
  IC50: 460 nM

## Cc1cc2cc3c(C)cc(=O)oc3c(C)c2o1 [trioxsalen, reference compound]
CYP1A2 [4]
  Ki: 100 nM
  mode of inhibition: mixed inhibition
CYP1A2 [2]
  IC50: 790 nM
